Measurements taken from PubChem BioAssay (NCI).
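Protocol summary: plate cells (96-well), add compound at 5 concentrations, incubate 48 h, interpolate endpoints linearly. GI50 marks 50% less growth. TGI: concentration producing complete growth inhibition.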

Experiments:
Experiment in all cases: DTP human tumour cell line panel, 48 h
[1] = tested on: SN12C renal
[2] = tested on: UACC-62 melanoma
[3] = tested on: ACHN renal
[4] = tested on: SNB-75 CNS
[5] = tested on: SR leukemia
[6] = tested on: HCT-116 colon
[7] = tested on: COLO 205 colon
[8] = tested on: MOLT-4 leukemia
[9] = tested on: NCI-H226 lung

Row | SMILES | TGI [1] [µM] | TGI [2] [µM] | TGI [3] [µM] | TGI [4] [µM] | TGI [5] [µM] | TGI [6] [µM] | TGI [7] [µM] | TGI [8] [µM] | TGI [9] [µM] | GI50 [1] [µM] | GI50 [2] [µM] | GI50 [3] [µM] | GI50 [4] [nM] | GI50 [8] [µM] | GI50 [9] [µM] | GI50 [6] [µM] | GI50 [7] [µM] | GI50 [5] [µM]
1 | CC1(C)C2CCC3(C2)CS(=O)(=O)N2OC231 (configuration not stated) | 31.6 | 31.8 | 29.4 | 36.5 | > 100 | > 100 | 32.9 |  |  |  |  |  |  |  |  |  |  | 
2 | Cc1ccc(S(=O)(=O)N=Nc2c(O)[nH]c3c(Cl)cc(Cl)cc23)cc1 | > 100 | > 100 | > 100 |  | > 100 | > 100 | > 100 | > 100 | > 100 |  |  |  |  |  |  |  |  | 
3 | C[C-](O)O.O/C(=C\[C-](O)c1ccccc1)c1ccccc1.O/C(=C\[C-](O)c1ccccc1)c1ccccc1.[Nd+3] (configuration not stated) |  | 45.3 | > 100 | 6.35 |  | 16.5 | 36.3 | 28.7 | 7.93 | 5.99 | 6.56 | 12 | 1770 | 3.89 | 1.24 | 4.24 | 14.7 | 
4 | CN=C1SC(=Nc2ccc(N(C)C)cc2)N1C | > 100 | > 100 |  | 49.1 | > 100 | > 100 | > 100 | > 100 | > 100 |  |  |  |  |  |  |  |  | 
5 | Oc1ccccc1-c1nc2c3ccccc3c3ccccc3c2[nH]1 | 22.6 | 12.4 | 15.6 | 15.2 |  | 22.3 | 22.7 | 10.7 | 20.9 | 10.7 | 3.1 | 4.26 | 2530 | 2.76 | 7.85 | 10.5 | 10.8 | 
6 | COC(=O)c1c(-c2ccccc2)sc(-c2cccc3ccccc23)c1C(=O)OC | > 100 | > 100 | > 100 | > 100 |  | > 100 | > 100 | > 100 | > 100 |  |  |  |  |  |  |  |  | 
7 | CCC(c1cccc(O)c1)C(CC)c1cccc(O)c1 (configuration not stated) | 19.4 | 16 | 18.9 | 11.7 |  | 14.5 | 5.41 |  | 26.3 | 5.46 | 3.67 | 5.64 | 973 |  | 12.1 | 3.66 | 2.05 | 
8 | CCOc1ccccc1NC(=O)CCc1nc(=S)[nH][nH]1 | > 100 | > 100 | > 100 |  | > 100 | > 100 | > 100 | > 100 | > 100 |  |  |  |  |  |  |  |  | 
9 | CCN(CC)CCCC(C)Nc1c2ccc(C)cc2nc2ccc(OC)cc12 (configuration not stated) | 55.1 | 27.9 | 11.7 | 3.24 | 7.18 | 6.46 | 2.96 | 13.6 |  | 3.12 | 10.5 | 0.741 | 1370 | 0.777 |  | 0.585 | 1.21 | 2.04
10 | O=C1C2Cc3ccccc3CN2C(=O)N1CCN1CCCC1 (configuration not stated) | > 100 | > 100 | > 100 |  |  |  | > 100 | > 100 | > 100 |  |  |  |  |  |  |  |  | 
11 | Cc1c2cc[n+](C)cc2c(C)c2c1[nH]c1ccc(O)c(OCC(F)(F)F)c12 | 4.11 | 25.2 |  | 1.35 |  | 12.1 | 12.6 | 22.1 | 4.08 |  |  |  |  |  |  |  |  | 
12 | O=[N+]([O-])c1ccc2c(c1)[O][Sn]([I])([I])[O]2 | > 100 | > 100 | > 100 | > 100 |  | > 100 |  | > 100 | > 100 | > 100 | 52 | > 100 | > 100000 | 68.4 | > 100 | > 100 |  | 
13 | Cc1c(Cl)cccc1NC(=O)CC1C(=O)Nc2ccccc2S1(=O)=O (configuration not stated) | 31.9 | 31.7 | 31.5 | 32.5 | 30.3 | 30.3 |  | 24.3 | 35.1 |  |  |  |  |  |  |  |  | 
14 | Cc1cc(-c2nnc3n2CCCCC3)c(C)n1-c1ccc(Cl)c(Cl)c1 | 40.1 | 17 | > 100 | 27.7 | 45.3 | 28.7 | 25.1 | 42.9 |  | 14.7 | 4.03 | 12 | 13400 | 15 |  | 12.8 | 10.6 | 11
15 | Fc1cccc(Cl)c1/C=N\N=C1c2ccccc2-c2ccccc21 | > 100 | > 100 | > 100 |  | > 100 | > 100 | > 100 | > 100 | > 100 |  |  |  |  |  |  |  |  | 
16 | CCN1CSC(=S)N(CC)C1 | > 100 | > 100 | > 100 | > 100 |  | > 100 | > 100 | > 100 | > 100 |  |  |  |  |  |  |  |  | 
17 | C1=CC=C2NCCOCCNC3=CC=CC=CC3=NCCOCCN=C2C=C1 | > 100 | > 100 | > 100 | > 100 |  | > 100 | > 100 | > 100 | > 100 |  |  |  |  |  |  |  |  | 
18 | CC(C)(C)NC(=O)[C@H]1C[C@H]2CCCC[C@H]2CN1C[C@@H](O)[C@H](Cc1ccccc1)NC(=O)[C@H](CC(N)=O)NC(=O)c1ccc2ccccc2n1 | 27.8 | 27.7 | 29.5 | 28.4 |  | > 47.1 | 29.8 | 21.8 | 32.8 | 13.9 | 13.6 | 16 | 12500 | 1.9 | 15.4 | 17 | 10.5 | 
19 | N.N.N.N.N.N.O=N[O-].[Br-].[Co+3].[Co+3].[OH3+].[OH3+] | > 100 | > 100 | > 100 | > 100 | > 100 |  | > 100 | > 100 | > 100 | > 100 | > 100 | > 100 | > 100000 | > 100 | > 100 |  | > 100 | > 100
